Measured values published in patent US20250230193A1, “CYCLIC COMPOUND HAVING SELECTIVE KRAS INHIBITORY EFFECT ON HRAS AND NRAS” (CHUGAI SEIYAKU KABUSHIKI KAISHA, priority 2022, published 2025).

What was measured:
[1] = target: GDP-bound NRAS wild-type protein (Homo sapiens, UniProt P01111); experiment: Binding to NRAS by surface plasmon resonance (SPR), Single Cycle Kinetics; conditions: SPR, GDP-bound NRAS wild-type vs GDP-bound KRAS wild-type
[2] = target: GDP-bound HRAS wild-type protein (Homo sapiens, UniProt P01112); experiment: Binding to HRAS by surface plasmon resonance (SPR), Single Cycle Kinetics; conditions: SPR, GDP-bound HRAS wild-type vs GDP-bound KRAS wild-type
Sequence of GDP-bound HRAS wild-type protein (P01112 whole entry): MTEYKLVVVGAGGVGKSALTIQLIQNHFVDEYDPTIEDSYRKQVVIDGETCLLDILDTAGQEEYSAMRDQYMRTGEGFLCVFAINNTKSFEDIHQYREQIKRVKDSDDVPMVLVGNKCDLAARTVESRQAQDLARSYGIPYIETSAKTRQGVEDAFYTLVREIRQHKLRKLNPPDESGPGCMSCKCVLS

Sequence of GDP-bound NRAS wild-type protein (P01111 whole entry): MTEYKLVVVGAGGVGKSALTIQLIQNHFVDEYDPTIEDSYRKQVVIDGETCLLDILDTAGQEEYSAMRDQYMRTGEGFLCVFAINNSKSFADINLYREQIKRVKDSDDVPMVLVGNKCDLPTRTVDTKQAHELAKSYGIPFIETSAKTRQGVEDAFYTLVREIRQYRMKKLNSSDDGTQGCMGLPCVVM

Compound	NRAS/KRAS (ratio of KD value with respect to NRAS to KD value with respect to KRAS) [1]	HRAS/KRAS (ratio of KD value with respect to HRAS to KD value with respect to KRAS) [2]
CCO[C@@H]1C[C@H]2C(=O)NC3(CC(C)(C)C3)C(=O)N(C)[C@@H](C(CC)CC)C(=O)N(C)[C@H](C(=O)N3CCCC3)CC(=O)N(C)[C@@H](C)C(=O)N[C@@H]([C@@H](C)CC)C(=O)N(C)CC(=O)N(C)[C@H]3C/C=C\CCN(C3=O)[C@@H](Cc3ccc(C(F)(F)F)cc3)C(=O)N(C)CC(=O)N[C@@H](CCc3ccc(Cl)c(Cl)c3)C(=O)N2C1 [PP2178]	AA (a compound having 20 or more is denoted as AA)	A (a compound having 10 or more and less than 20 is denoted as A)
CCO[C@@H]1C[C@H]2C(=O)NC3(CC(C)(C)C3)C(=O)N(C)[C@@H](C(CC)CC)C(=O)N(C)[C@H](C(=O)N(C)C)CC(=O)N(C)[C@@H](CC)C(=O)N[C@@H]([C@@H](C)CC)C(=O)N(C)CC(=O)N(C)[C@H]3C/C=C\CCN(C3=O)[C@@H](Cc3ccc(C(F)(F)F)cc3)C(=O)N(C)CC(=O)N[C@@H](CCc3ccc(Cl)c(Cl)c3)C(=O)N2C1 [PP2179]	AA (a compound having 20 or more is denoted as AA)	A (a compound having 10 or more and less than 20 is denoted as A)
CCO[C@@H]1C[C@H]2C(=O)NC3(CC(C)(C)C3)C(=O)N(C)[C@@H](C(CC)CC)C(=O)N(C)[C@H](C(=O)N(C)C)CC(=O)N(C)[C@@H](CC3CCC3)C(=O)N[C@@H]([C@@H](C)CC)C(=O)N(C)CC(=O)N(C)[C@H]3C/C=C\CCN(C3=O)[C@@H](Cc3ccc(C(F)(F)F)cc3)C(=O)N(C)CC(=O)N[C@@H](CCc3ccc(Cl)c(Cl)c3)C(=O)N2C1 [PP2180]	AA (a compound having 20 or more is denoted as AA)	A (a compound having 10 or more and less than 20 is denoted as A)
CCO[C@@H]1C[C@H]2C(=O)NC3(CC(C)(C)C3)C(=O)N(C)[C@@H](C(CC)CC)C(=O)N(C)[C@H](C(=O)N(C)C)CC(=O)N(C)[C@@H](C(C)C)C(=O)N[C@@H]([C@@H](C)CC)C(=O)N(C)CC(=O)N(C)[C@H]3C/C=C\CCN(C3=O)[C@@H](Cc3ccc(C(F)(F)F)cc3)C(=O)N(C)CC(=O)N[C@@H](CCc3ccc(Cl)c(Cl)c3)C(=O)N2C1 [PP2181]	AA (a compound having 20 or more is denoted as AA)	A (a compound having 10 or more and less than 20 is denoted as A)
CCO[C@@H]1C[C@H]2C(=O)NC3(CC(C)(C)C3)C(=O)N(C)[C@@H](C(CC)CC)C(=O)N(C)[C@H](C(=O)N(C)C)CC(=O)N(C)[C@@H](CC3CC3)C(=O)N[C@@H]([C@@H](C)CC)C(=O)N(C)CC(=O)N(C)[C@H]3C/C=C\CCN(C3=O)[C@@H](Cc3ccc(C)cc3)C(=O)N(C)CC(=O)N[C@@H](CCc3ccc(Cl)c(Cl)c3)C(=O)N2C1 [PP2182]	AA (a compound having 20 or more is denoted as AA)	A (a compound having 10 or more and less than 20 is denoted as A)
CCC[C@H]1C(=O)N[C@@H]([C@@H](C)CC)C(=O)N(C)CC(=O)N(C)[C@H]2C/C=C\CCN(C2=O)[C@@H](Cc2ccc(C)cc2)C(=O)N(C)CC(=O)N[C@@H](CCc2ccc(Cl)c(Cl)c2)C(=O)N2C[C@H](OCC)C[C@H]2C(=O)NC2(CC(C)(C)C2)C(=O)N(C)[C@@H](C(CC)CC)C(=O)N(C)[C@H](C(=O)N(C)C)CC(=O)N1C [PP2184]	AA (a compound having 20 or more is denoted as AA)	A (a compound having 10 or more and less than 20 is denoted as A)
CCO[C@@H]1C[C@H]2C(=O)NC3(CC(C)(C)C3)C(=O)N(C)[C@@H](C(CC)CC)C(=O)N(C)[C@H](C(=O)N(C)C)CC(=O)N(C)[C@@H](CC(C)C)C(=O)N[C@@H]([C@@H](C)CC)C(=O)N(C)CC(=O)N(C)[C@H]3C/C=C\CCN(C3=O)[C@@H](Cc3ccc(C)cc3)C(=O)N(C)CC(=O)N[C@@H](CCc3ccc(Cl)c(Cl)c3)C(=O)N2C1 [PP2185]	AA (a compound having 20 or more is denoted as AA)	A (a compound having 10 or more and less than 20 is denoted as A)
CCO[C@@H]1C[C@H]2C(=O)NC3(CC(C)(C)C3)C(=O)N(C)[C@@H](C(CC)CC)C(=O)N(C)[C@H](C(=O)N(C)C)CC(=O)N(C)[C@@H](C)C(=O)N[C@@H]([C@@H](C)CC)C(=O)N(C)CC(=O)N(C)[C@H]3C/C=C\CCN(C3=O)[C@@H](Cc3ccc(C)cc3)C(=O)N(C)CC(=O)N[C@@H](CCc3ccc(Cl)c(Cl)c3)C(=O)N2C1 [PP2186]	AA (a compound having 20 or more is denoted as AA)	A (a compound having 10 or more and less than 20 is denoted as A)
CCO[C@@H]1C[C@H]2C(=O)NC3(CC(C)(C)C3)C(=O)N(C)[C@@H](C(CC)CC)C(=O)N(C)[C@H](C(=O)N3CCCC3)CC(=O)N(C)[C@@H](C)C(=O)N[C@@H]([C@@H](C)CC)C(=O)N(C)CC(=O)N(C)[C@H]3C/C=C\CCN(C3=O)[C@@H](Cc3ccc(C)cc3)C(=O)N(C)CC(=O)N[C@@H](CCc3ccc(Cl)c(Cl)c3)C(=O)N2C1 [PP2187]	AA (a compound having 20 or more is denoted as AA)	A (a compound having 10 or more and less than 20 is denoted as A)
CCO[C@@H]1C[C@H]2C(=O)NC3(CC(C)(C)C3)C(=O)N(C)[C@@H](C(CC)CC)C(=O)N(C)[C@H](C(=O)N(C)C)CC(=O)N(C)[C@@H](CC)C(=O)N[C@@H]([C@@H](C)CC)C(=O)N(C)CC(=O)N(C)[C@H]3C/C=C\CCN(C3=O)[C@@H](Cc3ccc(C)cc3)C(=O)N(C)CC(=O)N[C@@H](CCc3ccc(Cl)c(Cl)c3)C(=O)N2C1 [PP2188]	AA (a compound having 20 or more is denoted as AA)	A (a compound having 10 or more and less than 20 is denoted as A)
CC[C@H](C)[C@@H]1NC(=O)[C@H](CC(C)C)N(C)C(=O)C[C@@H](C(=O)N(C)C)N(C)C(=O)[C@H](C2CCCC2)N(C)C(=O)C2(CCCC2)NC(=O)[C@@H]2C[C@@H](C)CN2C(=O)[C@H](CCc2cc(F)c(C(F)(F)F)c(F)c2)NC(=O)CN(C)C(=O)[C@H](Cc2ccc(C)cc2)N2CC/C=C\C[C@@H](C2=O)N(C)C(=O)CN(C)C1=O [PP2189]	A (a compound having 10 or more and less than 20 is denoted as A)	A (a compound having 10 or more and less than 20 is denoted as A)
CCC[C@H]1C(=O)N[C@@H](C2CCCC2)C(=O)N(C)CC(=O)N(C)[C@H]2C/C=C\CCN(C2=O)[C@@H](Cc2ccc(C)cc2)C(=O)N(C)CC(=O)N[C@@H](CCc2ccc(C(F)(F)F)c(Cl)c2)C(=O)N2C[C@H](OCC)C[C@H]2C(=O)NC2(CC(C)(C)C2)C(=O)N(C)[C@@H](CC(C)C)C(=O)N(C)[C@H](C(=O)N(C)C)CC(=O)N1C [PP2190]	A (a compound having 10 or more and less than 20 is denoted as A)	A (a compound having 10 or more and less than 20 is denoted as A)
CC[C@@H]1C[C@H]2C(=O)NC3(CCCC3)C(=O)N(C)[C@@H](C3CCCC3)C(=O)N(C)[C@H](C(=O)N(C)C)CC(=O)N(C)[C@@H](CC(C)C)C(=O)N[C@@H]([C@@H](C)CC)C(=O)N(C)CC(=O)N(C)[C@H]3C/C=C\CCN(C3=O)[C@@H](Cc3ccc(C)cc3)C(=O)N(C)CC(=O)N[C@@H](CCc3cc(F)c(C(F)(F)F)c(F)c3)C(=O)N2C1 [PP2191]	A (a compound having 10 or more and less than 20 is denoted as A)	B (a compound having 3 or more and less than 10 is denoted as B)
CCC[C@H]1C(=O)N[C@@H](C2CCCC2)C(=O)N(C)CC(=O)N(C)[C@H]2C/C=C\CCN(C2=O)[C@@H](Cc2ccc(C)cc2)C(=O)N(C)CC(=O)N[C@@H](CCc2ccc(C(F)(F)F)c(Cl)c2)C(=O)N2C[C@H](OCC)C[C@H]2C(=O)NC2(CC(C)(C)C2)C(=O)N(C)[C@@H](CC(F)(F)F)C(=O)N(C)[C@H](C(=O)N(C)C)CC(=O)N1C [PP2192]	A (a compound having 10 or more and less than 20 is denoted as A)	A (a compound having 10 or more and less than 20 is denoted as A)
CCC[C@@H]1C[C@H]2C(=O)NC3(CCCC3)C(=O)N(C)[C@@H](C3CCCC3)C(=O)N(C)[C@H](C(=O)N(C)C)CC(=O)N(C)[C@@H](CC(C)C)C(=O)N[C@@H]([C@@H](C)CC)C(=O)N(C)CC(=O)N(C)[C@H]3C/C=C\CCN(C3=O)[C@@H](Cc3ccc(C)cc3)C(=O)N(C)CC(=O)N[C@@H](CCc3cc(F)c(C(F)(F)F)c(F)c3)C(=O)N2C1 [PP2193]	A (a compound having 10 or more and less than 20 is denoted as A)	A (a compound having 10 or more and less than 20 is denoted as A)
CCO[C@@H]1C[C@H]2C(=O)NC3(CCCC3)C(=O)N(C)[C@@H](C3CCCC3)C(=O)N(C)[C@H](C(=O)N(C)C)CC(=O)N(C)[C@@H](CC(C)C)C(=O)N[C@@H]([C@@H](C)CC)C(=O)N(C)CC(=O)N(C)[C@H]3C/C=C\CCN(C3=O)[C@@H](Cc3ccc(C)cc3)C(=O)N(C)CC(=O)N[C@@H](CCc3ccc(C(F)(F)F)c(Cl)c3)C(=O)N2C1 [PP2195]	A (a compound having 10 or more and less than 20 is denoted as A)	A (a compound having 10 or more and less than 20 is denoted as A)
